Assay results from US11497212B2, “Substituted thiophenyl uracils, salts thereof and the use thereof as herbicidal agents” (Syngenta Crop Protection AG, priority 2017, dated 2022).

Assays:
Assay type in all cases: in vivo
Triticum aestivum = assay: Crop compatibility post-emergence (greenhouse pot trial); conditions: application rate 5 g/ha
Procedure, shortened: (§1)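 Compatibility is expressed as visually scored percent injury, where 0% means no difference from untreated controls and 100% means dead plants, assessed about 3 weeks after a foliar spray at 600 L/ha with 0.5% additive on one-leaf-stage pot plants in sandy loam.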

Amaranthus retroflexus [1] = assay: Herbicidal action post-emergence (greenhouse pot trial); conditions: application rate 20 g/ha, scored visually after about 3 weeks vs untreated controls
Procedure, shortened: (§2)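 Sowing in sandy loam, then 2–3 weeks of controlled greenhouse growth. Next, one-leaf-stage plants received a foliar spray of the WP- or EC-formulated compound with 0.5% additive (600 L/ha water, application rate of 80 g/ha or below). Finally, after about 3 weeks under optimal conditions, effect was judged by eye against controls.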

Stellaria media = assay: as above; conditions: application rate 20 g/ha, scored visually after about 3 weeks vs untreated controls
Procedure, shortened: as §2

Pharbitis purpurea = assay: as above; conditions: application rate 20 g/ha
Procedure, shortened: as §2

Veronica persica = assay: as above; conditions: application rate 20 g/ha
Procedure, shortened: as §2

Echinochloa crus-galli = assay: as above; conditions: application rate 20 g/ha, scored visually after about 3 weeks vs untreated controls
Procedure, shortened: as §2

Matricaria inodora [2] = assay: as above; conditions: application rate 20 g/ha, scored visually after about 3 weeks vs untreated controls
Procedure, shortened: as §2

Polygonum convolvulus = assay: as above; conditions: application rate 20 g/ha, scored visually after about 3 weeks vs untreated controls
Procedure, shortened: as §2

Setaria viridis = assay: as above; conditions: application rate 20 g/ha, scored visually after about 3 weeks vs untreated controls
Procedure, shortened: as §2

Digitaria sanguinalis = assay: as above; conditions: application rate 20 g/ha
Procedure, shortened: as §2

Hordeum murinum = assay: as above; conditions: application rate 20 g/ha, scored visually after about 3 weeks vs untreated controls
Procedure, shortened: as §2

Abutilon theophrasti [3] = assay: as above; conditions: application rate 20 g/ha, scored visually after about 3 weeks vs untreated controls
Procedure, shortened: as §2

Viola tricolor [4] = assay: as above; conditions: application rate 20 g/ha
Procedure, shortened: as §2

Zea mays [5] = assay: Crop compatibility pre-emergence (greenhouse pot trial); conditions: application rate 80 g/ha, effect vs untreated controls
Description: (§3) Seeds of mono- and dicotyledonous weeds and crop plants were laid out in plastic or organic plant pots and covered with soil. The compounds of the invention formulated in the form of wettable powders (WP) or emulsion concentrates (EC) were then applied to the surface of the covering soil as an aqueous suspension or emulsion with addition of 0.5% additive at a water application rate equivalent to 600 L/ha. After the treatment, the pots were placed in a greenhouse and kept under good growth conditions for the test plants. After about 3 weeks, the efficacy of the preparations was scored visually as a percentage by comparison with untreated controls. For example, 100% efficacy=plants have died, 0% efficacy=like control plants.
Crop compatibilities were also scored correspondingly.
The effects observed are reported here on selected crop plants by comparison with the untreated controls (values in %).

Amaranthus retroflexus [6] = assay: Herbicidal action pre-emergence (greenhouse pot trial); conditions: application rate 80 g/ha, scored after about 3 weeks
Description: as §3, with “control plants. Tables B1 to B16 below show the efficacies of selected compounds of the general formula (I) according to tables I.1 to I.60 on various harmful plants and an application rate corresponding to 320 g/ha or lower that were obtained by the aforementioned trial method.” for “control plants.”

Matricaria inodora [7] = assay: as above; conditions: application rate 80 g/ha, scored after about 3 weeks
Description: as §3, with “control plants. Tables B1 to B16 below show the efficacies of selected compounds of the general formula (I) according to tables I.1 to I.60 on various harmful plants and an application rate corresponding to 320 g/ha or lower that were obtained by the aforementioned trial method.” for “control plants.”

Abutilon theophrasti [8] = assay: as above; conditions: application rate 80 g/ha, scored after about 3 weeks
Description: as §3, with “control plants. Tables B1 to B16 below show the efficacies of selected compounds of the general formula (I) according to tables I.1 to I.60 on various harmful plants and an application rate corresponding to 320 g/ha or lower that were obtained by the aforementioned trial method.” for “control plants.”

Viola tricolor [9] = assay: as above; conditions: application rate 80 g/ha, scored after about 3 weeks
Description: as §3, with “control plants. Tables B1 to B16 below show the efficacies of selected compounds of the general formula (I) according to tables I.1 to I.60 on various harmful plants and an application rate corresponding to 320 g/ha or lower that were obtained by the aforementioned trial method.” for “control plants.”

Glycine max = assay: Crop compatibility post-emergence (greenhouse pot trial); conditions: application rate 5 g/ha
Procedure, shortened: as §1

Zea mays [10] = assay: as above; conditions: application rate 20 g/ha
Procedure, shortened: as §1

Oryza sativa = assay: as above; conditions: application rate 20 g/ha
Procedure, shortened: as §1

Triticum aestivum (Efficacy in %) (Triticum aestivum)	Structure (SMILES)	Amaranthus retroflexus (Efficacy in %) (Amaranthus retroflexus [1])	Pharbitis purpurea (Efficacy in %) (Pharbitis purpurea)	Veronica persica (Efficacy in %) (Veronica persica)	Matricaria inodora (Efficacy in %) (Matricaria inodora [2])	Polygonum convolvulus (Efficacy in %) (Polygonum convolvulus)	Abutilon theophrasti (Efficacy in %) (Abutilon theophrasti [3])	Viola tricolor (Efficacy in %) (Viola tricolor [4])	other results
10%	CC(Sc1cc(-n2c(=O)cc(C(F)(F)F)n(C)c2=O)c(F)cc1Cl)C(=O)OCCCSC(F)(F)F (centres unmarked) [I.1-48]	100%	100%	100%	100%	100%	100%	100%	Stellaria media (Efficacy in %) (Stellaria media): 100%; Echinochloa crus-galli (Efficacy in %) (Echinochloa crus-galli): 100%; Setaria viridis (Efficacy in %) (Setaria viridis): 100%; Digitaria sanguinalis (Efficacy in %) (Digitaria sanguinalis): 100%; Hordeum murinum (Efficacy in %) (Hordeum murinum): 80%
10%	CC(Sc1cc(-n2c(=O)cc(C(F)(F)F)n(C)c2=O)c(F)cc1Cl)C(=O)NCC1CCOC1(C)C (centres unmarked) [I.1-227]	100%	100%	100%	100%	100%	100%	80%	Zea mays (Efficacy in %) (Zea mays [5]): 0%; Amaranthus retroflexus (Efficacy in %) (Amaranthus retroflexus [6]): 100%; Matricaria inodora (Efficacy in %) (Matricaria inodora [7]): 90%; Abutilon theophrasti (Efficacy in %) (Abutilon theophrasti [8]): 100%; Viola tricolor (Efficacy in %) (Viola tricolor [9]): 80%; Glycine max (Efficacy in %) (Glycine max): 20%; Zea mays (Efficacy in %) (Zea mays [10]): 20%; Oryza sativa (Efficacy in %) (Oryza sativa): 0%
